Assay type in all cases: cell-based, human
The subject of experiment [1] is HaCaT keratinocytes. As to the kind of experiment: IL-8 release after IL-1alpha stimulation of pre-treated keratinocytes (ELISA). The settings on record: 48 h pre-treatment, then 30 ng/mL IL-1alpha for 8 h. The method, then: Anti-Inflammatory Effects of Lactobacillus plantarum HEAL 19 and HEAL 99 HaCaT keratinocytes were cultivated in 96-well plates using RPMI-A, medium sterile filtered with L-Glutamine, Capricorn, supplemented with 10% fetal calf serum (FCS), Capricorn. The plates were incubated at 37° C. and 5% CO2. After 24 hours starvation with cell culture medium (RPMI, 1% FCS) the cells were washed once. The anti-inflammatory substances/inactivated bacteria suspensions were suspended in starvation medium, applied and incubated for 24/48 h with parameters described above. […] To remove bacterial cells after pre-incubation all wells were washed with cell culture medium three times. IL-1alpha, Gibco, life technologies was dissolved in H2Odest, diluted in starvation medium and pipetted to wells, preferably at a concentration of 30 ng/mL. Alternatively, a heat inactivated Staphylococcus aureus (DSM799) suspension was used as pro-inflammatory agent in a concentration of 0.1 mg/mL-1 mg/mL dry mass. After 8 h incubation the supernatants were separated. All samples were stored at −80° C. until further analyses. IL-8 concentrations were measured with Human CXCL8/IL-8, DuoSet ELISA, Development Systems, R&D Systems. The experimental procedure was performed as described in the provided protocol. After calculating means of the duplicate/triplicate values and subtraction of the average zero standard optical density the calculation was done using four parameter logistic curve-fit for creating standard curves.
A general note: An ELISA detects its analyte on a solid surface through an enzyme-linked reagent.

Experiment [2] has as its system HaCaT keratinocytes. As to the kind of experiment: AMP gene expression in keratinocytes grown as mono-layer (real time PCR, TaqMan array). The settings on record: 0.1 and 0.05% tested, 24 h treatment, HaCaT. How it is done:
Effects of Lactobacillus Strains on AMP Gene Expression in Keratinocytes Grown as Mono-Layer
AMP inductions were measured with real time PCR analysis using Taq-Man® Array fast 96-well plates.
HaCaT keratinocytes were cultivated in EpiLife medium, cascade Biologics, Gibco, incl. HKGS, Gibco, life technologies. Test substances were diluted in equal medium and added in a volume of 2 mL per well on 6-well plates. All samples are tested on 100% confluent cells incubated at 37° C., 5% CO2. After 24 h incubation time all samples were removed and cells washed twice with Dulbecco's Phosphate Buffered Saline with Ca and Mg, Capricorn. RNA isolation was performed using RNeasy® Mini Kit, Qiagen. The procedure has been done as describes in the RNeasy Mini Handbook.
Cells were lysed and precipitated with ethanol, the homogenate was washed three times using the spin column and the mRNA was eluated with purified water. Depending on the sample the procedure was slightly adjusted.
RNA concentration was measured using μCuvetteG 1.0 and BioPhotometer, Eppendorf by measuring the absorption at 260 nm. Control values, like E260/280 or E260/230 were calculated simultaneously. Transcription was done with a minimum of 0.5-1 μg RNA per sample.
Reverse transcription was done using high capacity RNA-to-cDNA Kit, Applied Biosystems. The procedure was based on the provided protocol. All samples were incubated in a PCR Thermocycler, Biometra running 60 min at 37° C. for reverse transcription, followed by 5 min at 95° C. (enzyme inactivation) and holding temperature at 4° C. in reaction room.
Quantitative Real-Time PCR was done using StepOne Plus Fast Real Time PCR Instrument, Applied Biosystems. Initial steps of the RT-PCR included a first heating phase holding for 20 s at 95° C., followed by 40 cycles of cDNA denaturation for 3 s at 95° C. and annealing/elongation at 60° C. for 30 s.
Analysis was done by 2-ACT Method—in detail: • 1. Standardization of Ct values with reference-gen (HPRT) ΔCTvaluegene=CTvaluegene−CTvalueReferencegene (HPRT) • 2. Subtraction of ACT-value of control sample (untreated) and ACT-value (treated) ΔΔCTvaluegene=ΔCTvaluetreated−ΔCTvaluecontrol • 3. Calculation of RQ-Ratio (relative quantification-value) RQ−value=2^−ΔΔCT
A RQ-Value of >2 was defined as relevant induction of a gene.
On the technique in general: In qPCR the cycle at which signal appears reflects the starting amount.

Experiment [3] has as its system HEPKp 3 dimensional skin models. As to the kind of experiment: Induction of hyaluronic acid in HEPKp 3D skin models (ELISA). The settings on record: 0.005% in cell culture medium, 8 days treatment. How it is done: Induction of Hyaluronic Acid Human epidermal keratinocyte progenitors (HEPKp) generated 3d human skin models were cultivated and systemically treated with test substances. Briefly, defined concentrations of test substances were added to cell culture medium and each skin model was treated in cell culture dishes for up to 9 days at 37° C. and 5% CO2. After the treatment, collected supernatants were stored at −80° C. until further analyses. Viability of the cells was controlled by MTT standard method. Hyaluronic acid concentrations were measured by TECOmedical hyaluronic acid plus ELISA. The experimental procedure was performed as described in the provided protocol.

For experiment [4] the test system is unchanged. Put plainly: Filaggrin release from HEPKp 3D skin models (ELISA). The settings on record: 0.05%, after 8 days, vs medium control. The text has this:
Induction of Moisturizing Factor Filaggrin in 3D Skin Models Three dimensional skin models derived from human epidermal keratinocyte progenitors (HEPKp) and were systemically treated with test substances in CnT-PR-3D medium for 4 to 9 days. The filaggrin release was detected in the media by ELISA, Enzyme-linked Immunosorbent Assay Kit for filaggrin, Cloud-Clone Corp.

Consider `C[C@@H]1C[C@H]2[C@@H]3CCC4=CC(=O)C=C[C@]4(C)[C@@]3(F)[C@@H](O)C[C@]2(C)[C@@]1(O)C(=O)CO` [dexamethasone, reference compound], for which, in the experiment on HaCaT keratinocytes [1] (30 μM, positive control), the “IL-8 release reduced to, compared to not pre-treated IL-1alpha control” value is given as 20.4%.
On to “Lactobacillus plantarum HEAL 99 (DSM 15316) [L. plantarum HEAL 99]”, for which, in the experiment on HaCaT keratinocytes [2], the “induction of AMP coding gene Peptidase inhibitor 3” value is reported as “induced concentration dependently”, the “induction of AMP coding gene Phospholipase A2” value is reported as “induced concentration dependently”, the “induction of AMP coding gene RNase 7” value is “induced concentration dependently” and the “induction of AMP coding gene Secretory leukocyte peptidase inhibitor” value is “induced concentration dependently”. Moreover, the “induction of AMP coding gene β-Defensin 3” value in the experiment on HaCaT keratinocytes [2] is on record as “induced concentration dependently”. Besides, the “hyaluronic acid release compared to the medium control” value in experiment [3] is on record as 115%. The “IL-8 release reduced to, compared to not pre-treated IL-1alpha control” value with HaCaT keratinocytes [1] (0.1 mg/mL) amounted to 12.6%. Further, the “filaggrin (FLG) release in medium” value in experiment [4] is 150%.
